Values joined by “and” are separate entries in the source; they are usually repeats but may differ in a detail not shown here. Identical values can stand only once.
What was measured:
Experiment in all cases: radiometric filter-binding kinase assay, Kinase HotSpot
MAPKAPK3 (human) = MAPKAPK3 (human) (UniProt Q16644); details: compound 0.5 µM; ATP 10 µM
EPHB2 (human) = EPHB2 (human) (UniProt P29323); details: compound 0.5 µM; ATP 10 µM
HIPK3 (human) = HIPK3 (human) (UniProt Q9H422); details: compound 0.5 µM; ATP 10 µM
FES (human) = FES (human) (UniProt P07332); details: compound 0.5 µM; ATP 10 µM
MAPK9 (human) = MAPK9 (human) (UniProt P45984); details: compound 0.5 µM; ATP 10 µM
PRKCA (human) = PRKCA (human) (UniProt P17252); details: compound 0.5 µM; ATP 10 µM
NEK6 (human) = NEK6 (human) (UniProt Q9HC98); details: compound 0.5 µM; ATP 10 µM
Sequence of NEK6 (human) (Q9HC98 whole entry, looked up): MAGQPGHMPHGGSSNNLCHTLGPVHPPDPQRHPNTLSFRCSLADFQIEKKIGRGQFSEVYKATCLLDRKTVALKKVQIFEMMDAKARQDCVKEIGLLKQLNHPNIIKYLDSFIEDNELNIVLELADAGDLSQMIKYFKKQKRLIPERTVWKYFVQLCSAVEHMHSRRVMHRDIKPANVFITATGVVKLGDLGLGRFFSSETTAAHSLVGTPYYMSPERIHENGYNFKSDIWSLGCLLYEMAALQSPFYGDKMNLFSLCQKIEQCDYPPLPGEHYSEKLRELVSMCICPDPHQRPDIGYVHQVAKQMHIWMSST

PRKG1 (human) = PRKG1 (human) (UniProt Q13976); details: compound 0.5 µM; ATP 10 µM
CSNK1E (human) = CSNK1E (human) (UniProt P49674); details: compound 0.5 µM; ATP 10 µM
PAK7 (human) = PAK7 (human) (UniProt Q9P286); details: compound 0.5 µM; ATP 10 µM
CSNK1D (human) = CSNK1D (human) (UniProt P48730); details: compound 0.5 µM
MAP3K14 (human) = MAP3K14 (human) (UniProt Q99558); details: compound 0.5 µM; ATP 10 µM
IRAK4 (human) = IRAK4 (human) (UniProt Q9NWZ3); details: compound 0.5 µM; ATP 10 µM
INSRR (human) = INSRR (human) (UniProt P14616); details: compound 0.5 µM; ATP 10 µM
ABL2 (human) = ABL2 (human) (UniProt P42684); details: compound 0.5 µM; ATP 10 µM
MINK1 (human) = MINK1 (human) (UniProt Q8N4C8); details: compound 0.5 µM; ATP 10 µM
MKNK2 (human) = MKNK2 (human) (UniProt Q9HBH9); details: compound 0.5 µM; ATP 10 µM
DSTYK (human) = DSTYK (human) (UniProt Q6XUX3); details: compound 0.5 µM; ATP 10 µM
PRKX (human) = PRKX (human) (UniProt P51817); details: compound 0.5 µM; ATP 10 µM
Sequence of PRKX (human) (P51817 whole entry, looked up): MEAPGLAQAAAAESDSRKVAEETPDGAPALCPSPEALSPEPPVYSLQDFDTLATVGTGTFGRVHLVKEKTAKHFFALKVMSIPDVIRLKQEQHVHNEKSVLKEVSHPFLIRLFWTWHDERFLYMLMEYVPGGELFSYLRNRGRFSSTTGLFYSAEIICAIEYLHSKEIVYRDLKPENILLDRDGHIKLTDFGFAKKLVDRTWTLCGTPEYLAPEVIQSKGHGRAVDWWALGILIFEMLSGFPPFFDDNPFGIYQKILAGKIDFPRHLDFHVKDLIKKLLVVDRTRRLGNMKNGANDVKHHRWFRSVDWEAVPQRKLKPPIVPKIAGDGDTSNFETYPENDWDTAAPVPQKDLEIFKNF

MLTK (human) = MLTK (human) (UniProt Q9NYL2); details: compound 0.5 µM; ATP 10 µM
DYRK1B (human) = DYRK1B (human) (UniProt Q9Y463); details: compound 0.5 µM; ATP 10 µM
SRPK3 (human) = SRPK3 (human) (UniProt Q9UPE1); details: compound 0.5 µM; ATP 10 µM
SYK (human) = SYK (human) (UniProt P43405); details: compound 0.5 µM; ATP 10 µM
PKN1 (human) = PKN1 (human) (UniProt Q16512); details: compound 0.5 µM; ATP 10 µM
Sequence of PKN1 (human) (Q16512 whole entry, looked up): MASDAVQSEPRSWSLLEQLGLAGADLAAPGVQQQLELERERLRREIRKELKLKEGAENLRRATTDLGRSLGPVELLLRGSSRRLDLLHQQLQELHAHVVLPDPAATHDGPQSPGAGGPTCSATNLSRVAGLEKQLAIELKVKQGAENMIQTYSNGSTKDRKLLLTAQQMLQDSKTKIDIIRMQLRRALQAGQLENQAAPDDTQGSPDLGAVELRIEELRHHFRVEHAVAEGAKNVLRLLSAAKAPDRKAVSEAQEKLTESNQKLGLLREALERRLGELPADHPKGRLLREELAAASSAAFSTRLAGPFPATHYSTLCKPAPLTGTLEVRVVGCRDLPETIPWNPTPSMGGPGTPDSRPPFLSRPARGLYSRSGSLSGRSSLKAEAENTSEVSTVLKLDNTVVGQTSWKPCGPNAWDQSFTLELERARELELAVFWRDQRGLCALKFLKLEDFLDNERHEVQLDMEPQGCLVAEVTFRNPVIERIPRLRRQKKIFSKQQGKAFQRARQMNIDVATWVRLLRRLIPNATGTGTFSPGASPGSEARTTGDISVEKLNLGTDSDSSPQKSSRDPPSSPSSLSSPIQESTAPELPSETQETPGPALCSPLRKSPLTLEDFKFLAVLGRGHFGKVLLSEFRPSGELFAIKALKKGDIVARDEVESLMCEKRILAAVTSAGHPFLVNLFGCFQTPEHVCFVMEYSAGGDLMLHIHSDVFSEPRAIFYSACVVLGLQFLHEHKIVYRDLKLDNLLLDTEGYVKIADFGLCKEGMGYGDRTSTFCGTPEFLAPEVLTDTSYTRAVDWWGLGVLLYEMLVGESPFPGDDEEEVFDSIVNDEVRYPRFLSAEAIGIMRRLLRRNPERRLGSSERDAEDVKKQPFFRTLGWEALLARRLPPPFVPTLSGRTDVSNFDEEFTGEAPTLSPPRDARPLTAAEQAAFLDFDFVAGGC

CDK9 CCNK (human) = CDK9 CCNK (human) (UniProt O75909+P50750); details: compound 0.5 µM
IGF1R (human) = IGF1R (human) (UniProt P08069); details: compound 0.5 µM
Sequence of IGF1R (human) (P08069 whole entry, looked up): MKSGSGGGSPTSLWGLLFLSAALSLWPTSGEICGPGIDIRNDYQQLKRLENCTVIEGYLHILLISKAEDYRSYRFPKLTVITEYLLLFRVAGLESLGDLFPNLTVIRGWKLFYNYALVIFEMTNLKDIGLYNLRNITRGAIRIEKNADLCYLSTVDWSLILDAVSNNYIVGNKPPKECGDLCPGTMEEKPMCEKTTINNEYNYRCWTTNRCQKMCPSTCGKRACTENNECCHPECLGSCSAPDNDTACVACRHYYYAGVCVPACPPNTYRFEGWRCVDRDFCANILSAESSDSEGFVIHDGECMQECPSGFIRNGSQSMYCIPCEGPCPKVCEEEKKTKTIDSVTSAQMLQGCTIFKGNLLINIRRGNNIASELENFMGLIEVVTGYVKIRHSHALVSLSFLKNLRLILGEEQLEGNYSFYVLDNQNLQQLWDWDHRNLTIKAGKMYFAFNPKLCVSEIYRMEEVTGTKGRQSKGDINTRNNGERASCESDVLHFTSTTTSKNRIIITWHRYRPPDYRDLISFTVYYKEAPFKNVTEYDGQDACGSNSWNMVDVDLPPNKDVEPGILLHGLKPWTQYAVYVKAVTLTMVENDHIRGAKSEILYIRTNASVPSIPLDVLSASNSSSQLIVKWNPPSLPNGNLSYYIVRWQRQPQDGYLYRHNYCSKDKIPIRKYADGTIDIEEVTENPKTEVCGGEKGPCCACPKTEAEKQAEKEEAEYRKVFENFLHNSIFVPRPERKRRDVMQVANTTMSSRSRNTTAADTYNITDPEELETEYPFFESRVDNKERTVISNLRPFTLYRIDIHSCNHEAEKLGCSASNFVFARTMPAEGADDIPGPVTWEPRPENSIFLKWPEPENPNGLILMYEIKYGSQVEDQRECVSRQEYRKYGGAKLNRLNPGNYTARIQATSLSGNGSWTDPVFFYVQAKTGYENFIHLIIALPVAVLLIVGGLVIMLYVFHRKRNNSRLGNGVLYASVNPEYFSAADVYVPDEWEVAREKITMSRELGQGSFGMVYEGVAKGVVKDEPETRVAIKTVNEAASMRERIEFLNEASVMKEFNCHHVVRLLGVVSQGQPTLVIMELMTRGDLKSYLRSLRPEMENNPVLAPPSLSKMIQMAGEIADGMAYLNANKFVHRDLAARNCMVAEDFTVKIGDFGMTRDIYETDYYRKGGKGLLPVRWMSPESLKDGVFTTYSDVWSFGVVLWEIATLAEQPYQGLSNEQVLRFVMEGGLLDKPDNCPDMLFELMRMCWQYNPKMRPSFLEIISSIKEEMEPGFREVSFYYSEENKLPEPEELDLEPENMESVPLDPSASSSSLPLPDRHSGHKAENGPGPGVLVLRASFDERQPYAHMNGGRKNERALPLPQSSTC

PHKG2 (human) = PHKG2 (human) (UniProt P15735); details: compound 0.5 µM; ATP 10 µM
BRSK1 (human) = BRSK1 (human) (UniProt Q8TDC3); details: compound 0.5 µM; ATP 10 µM
CLK3 (human) = CLK3 (human) (UniProt P49761); details: compound 0.5 µM; ATP 10 µM
MARK3 (human) = MARK3 (human) (UniProt P27448); details: compound 0.5 µM; ATP 10 µM
MST4 (human) = MST4 (human) (UniProt Q9P289); details: compound 0.5 µM; ATP 10 µM
CDK5 CDK5R1 p25 (human) = CDK5 CDK5R1 p25 (human) (UniProt Q00535+Q15078); details: compound 0.5 µM
ERBB2 (human) = ERBB2 (human) (UniProt P04626); details: compound 0.5 µM; ATP 10 µM
CSK (human) = CSK (human) (UniProt P41240); details: compound 0.5 µM; ATP 10 µM
ABL1 (human) = ABL1 (human) (UniProt P00519); details: compound 0.5 µM; ATP 10 µM
EPHA7 (human) = EPHA7 (human) (UniProt Q15375); details: compound 0.5 µM; ATP 10 µM
MAP3K2 (human) = MAP3K2 (human) (UniProt Q9Y2U5); details: compound 0.5 µM; ATP 10 µM
NLK (human) = NLK (human) (UniProt Q9UBE8); details: compound 0.5 µM; ATP 10 µM
FLT1 (human) = FLT1 (human) (UniProt P17948); details: compound 0.5 µM; ATP 10 µM
CAMKK2 (human) = CAMKK2 (human) (UniProt Q96RR4); details: compound 0.5 µM; ATP 10 µM
JAK2 JH1 JH2 (human) = JAK2 JH1 JH2 (human) (UniProt O60674); details: compound 0.5 µM; ATP 10 µM
Sequence of JAK2 JH1 JH2 (human) (O60674 whole entry, looked up): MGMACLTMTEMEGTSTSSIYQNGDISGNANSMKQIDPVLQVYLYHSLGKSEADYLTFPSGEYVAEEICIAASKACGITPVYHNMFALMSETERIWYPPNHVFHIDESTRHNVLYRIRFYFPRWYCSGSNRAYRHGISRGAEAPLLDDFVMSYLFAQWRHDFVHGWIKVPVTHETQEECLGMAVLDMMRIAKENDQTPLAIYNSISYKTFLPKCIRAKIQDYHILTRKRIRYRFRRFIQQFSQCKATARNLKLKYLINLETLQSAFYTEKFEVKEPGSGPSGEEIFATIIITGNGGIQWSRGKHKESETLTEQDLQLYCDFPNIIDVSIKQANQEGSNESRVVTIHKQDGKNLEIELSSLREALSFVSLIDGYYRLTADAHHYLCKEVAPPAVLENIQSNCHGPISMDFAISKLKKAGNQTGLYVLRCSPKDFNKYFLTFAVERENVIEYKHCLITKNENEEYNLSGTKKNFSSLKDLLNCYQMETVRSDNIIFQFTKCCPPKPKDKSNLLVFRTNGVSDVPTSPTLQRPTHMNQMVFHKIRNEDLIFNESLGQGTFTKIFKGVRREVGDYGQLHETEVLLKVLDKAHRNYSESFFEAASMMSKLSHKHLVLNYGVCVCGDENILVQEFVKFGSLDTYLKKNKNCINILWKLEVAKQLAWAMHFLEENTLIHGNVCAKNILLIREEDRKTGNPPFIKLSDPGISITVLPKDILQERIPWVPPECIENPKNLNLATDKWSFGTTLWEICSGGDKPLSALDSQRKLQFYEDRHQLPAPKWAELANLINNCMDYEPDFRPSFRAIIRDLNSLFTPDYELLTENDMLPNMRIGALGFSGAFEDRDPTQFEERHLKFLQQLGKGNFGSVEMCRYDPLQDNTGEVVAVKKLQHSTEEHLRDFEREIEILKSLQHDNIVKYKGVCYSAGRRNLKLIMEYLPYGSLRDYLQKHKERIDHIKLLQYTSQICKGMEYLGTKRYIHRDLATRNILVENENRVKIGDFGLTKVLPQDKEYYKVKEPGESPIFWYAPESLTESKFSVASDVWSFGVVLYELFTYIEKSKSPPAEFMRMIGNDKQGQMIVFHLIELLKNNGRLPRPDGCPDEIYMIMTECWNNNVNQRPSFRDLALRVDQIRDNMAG

ULK2 (human) = ULK2 (human) (UniProt Q8IYT8); details: compound 0.5 µM; ATP 10 µM

## O=c1c(-c2ccc(F)cc2)c(-c2ccncc2)[nH]n1-c1ccc(Cl)cc1
MAPKAPK3 (human)
  residual activity: 101%
EPHB2 (human)
  residual activity: 101%
HIPK3 (human)
  residual activity: 101%
FES (human)
  residual activity: 92.3%
MAPK9 (human)
  residual activity: 6.07%
PRKCA (human)
  residual activity: 100%
NEK6 (human)
  residual activity: 106%
PRKG1 (human)
  residual activity: 106% and 95.6%
CSNK1E (human)
  residual activity: 35%
PAK7 (human)
  residual activity: 86.3%
CSNK1D (human); ATP 10 µM
  residual activity: 26.7%
MAP3K14 (human)
  residual activity: 102%
IRAK4 (human)
  residual activity: 81.9%
INSRR (human)
  residual activity: 95.4%
ABL2 (human)
  residual activity: 82.8%
MINK1 (human)
  residual activity: 97.3%
MKNK2 (human)
  residual activity: 97.2%
DSTYK (human)
  residual activity: 92.9%
PRKX (human)
  residual activity: 97%
MLTK (human)
  residual activity: 91.2%
DYRK1B (human)
  residual activity: 92.2%
SRPK3 (human)
  residual activity: 92.2%
SYK (human)
  residual activity: 98.9%
PKN1 (human)
  residual activity: 92.4%
CDK9 CCNK (human); ATP 10 µM
  residual activity: 93.4%
IGF1R (human); ATP 10 µM
  residual activity: 92.8%
PHKG2 (human)
  residual activity: 121%
BRSK1 (human)
  residual activity: 88.7%
CLK3 (human)
  residual activity: 88.7%
MARK3 (human)
  residual activity: 87.2%
MST4 (human)
  residual activity: 94.1%
CDK5 CDK5R1 p25 (human); ATP 10 µM
  residual activity: 76.3%
ERBB2 (human)
  residual activity: 103%
CSK (human)
  residual activity: 86.1%
ABL1 (human)
  residual activity: 98.1%
EPHA7 (human)
  residual activity: 98.5%
MAP3K2 (human)
  residual activity: 98.9%
NLK (human)
  residual activity: 16%
FLT1 (human)
  residual activity: 81.3%
CAMKK2 (human)
  residual activity: 83%
JAK2 JH1 JH2 (human)
  residual activity: 95.1%

## O=c1[nH]c2ccccc2n1C1CCN(Cc2ccc(-c3nc4cc5[nH]cnc5cc4nc3-c3ccccc3)cc2)CC1
MAPKAPK3 (human)
  residual activity: 104%
EPHB2 (human)
  residual activity: 108%
HIPK3 (human)
  residual activity: 102%
FES (human)
  residual activity: 101%
MAPK9 (human)
  residual activity: 91.9%
PRKCA (human)
  residual activity: 84.3%
NEK6 (human)
  residual activity: 98.2%
PRKG1 (human)
  residual activity: 101% and 103%
CSNK1E (human)
  residual activity: 107%
PAK7 (human)
  residual activity: 110%
CSNK1D (human)
  residual activity: 100%
MAP3K14 (human)
  residual activity: 96.8%
IRAK4 (human)
  residual activity: 201%
INSRR (human)
  residual activity: 101%
ABL2 (human)
  residual activity: 96.8%
MINK1 (human)
  residual activity: 103%
MKNK2 (human)
  residual activity: 98.7%
DSTYK (human)
  residual activity: 104%
PRKX (human)
  residual activity: 101%
MLTK (human)
  residual activity: 106%
DYRK1B (human)
  residual activity: 97.9%
SRPK3 (human)
  residual activity: 107%
SYK (human)
  residual activity: 97.9%
PKN1 (human)
  residual activity: 90.3%
CDK9 CCNK (human)
  residual activity: 108%
IGF1R (human)
  residual activity: 91.2%
PHKG2 (human)
  residual activity: 104%
BRSK1 (human)
  residual activity: 98.3%
CLK3 (human)
  residual activity: 111%
MARK3 (human)
  residual activity: 103%
MST4 (human)
  residual activity: 102%
CDK5 CDK5R1 p25 (human)
  residual activity: 96.9%
ERBB2 (human)
  residual activity: 88.9%
CSK (human)
  residual activity: 101%
ABL1 (human)
  residual activity: 98.2%
EPHA7 (human)
  residual activity: 109%
MAP3K2 (human)
  residual activity: 92.4%
NLK (human)
  residual activity: 104%
FLT1 (human)
  residual activity: 92.2%
CAMKK2 (human)
  residual activity: 112%
JAK2 JH1 JH2 (human)
  residual activity: 104%

## O=c1cc(N2CCOCC2)oc2c(-c3ccccc3)cccc12
MAPKAPK3 (human)
  residual activity: 101%
EPHB2 (human)
  residual activity: 99.8%
HIPK3 (human)
  residual activity: 120%
FES (human)
  residual activity: 96.6%
MAPK9 (human)
  residual activity: 102%
PRKCA (human)
  residual activity: 97.5%
NEK6 (human)
  residual activity: 112%
PRKG1 (human)
  residual activity: 104% and 105%
ULK2 (human)
  residual activity: 113%
CSNK1E (human)
  residual activity: 103%
PAK7 (human)
  residual activity: 104%
CSNK1D (human); ATP 10 µM
  residual activity: 100%
MAP3K14 (human)
  residual activity: 101%
IRAK4 (human)
  residual activity: 96%
INSRR (human)
  residual activity: 97.7%
ABL2 (human)
  residual activity: 98.1%
MINK1 (human)
  residual activity: 94.6%
MKNK2 (human)
  residual activity: 103%
DSTYK (human)
  residual activity: 113%
PRKX (human)
  residual activity: 101%
MLTK (human)
  residual activity: 94.2%
DYRK1B (human)
  residual activity: 96.8%
SRPK3 (human)
  residual activity: 95.5%
SYK (human)
  residual activity: 99.7%
PKN1 (human)
  residual activity: 109%
CDK9 CCNK (human); ATP 10 µM
  residual activity: 95.9%
IGF1R (human); ATP 10 µM
  residual activity: 102%
PHKG2 (human)
  residual activity: 97.2%
BRSK1 (human)
  residual activity: 103%
CLK3 (human)
  residual activity: 107%
MARK3 (human)
  residual activity: 95.4%
MST4 (human)
  residual activity: 97.2%
CDK5 CDK5R1 p25 (human); ATP 10 µM
  residual activity: 86.7%
ERBB2 (human)
  residual activity: 104%
CSK (human)
  residual activity: 88.1%
ABL1 (human)
  residual activity: 99.2%
EPHA7 (human)
  residual activity: 102%
MAP3K2 (human)
  residual activity: 101%
NLK (human)
  residual activity: 99.8%
CAMKK2 (human)
  residual activity: 83.3%
JAK2 JH1 JH2 (human)
  residual activity: 95.1%

— the kinase profiling compilation of Christmann-Franck et al. (2016)
